# Measured values published in paper PMC6152127, “Facile Synthesis of Novel Coumarin Derivatives, Antimicrobial Analysis, Enzyme Assay, Docking Study, ADMET Prediction and Toxicity Study” (Molecules : A Journal of Synthetic Chemistry and Natural …, 2017).
# Assays:
# [1] = system: Bacillus subtilis (NCIM-2063); assay: In vitro antibacterial activity, MIC; assay type: cell-based; conditions: average of three readings; for MIC: Bacillus subtilis, NCIM2063
# Method: (§1) The newly synthesized compounds 4a–o were screened for their in vitro antibacterial activity against the three different bacterial strains. Minimum inhibitory concentration (MIC) values for antibacterial activity were determined by standard agar method using Ampicillin as standard drug. Dimethyl sulfoxide (DMSO) was used as solvent control. […] Compound 4e bearing a 2,4-difluoro group on the phenyl ring was 48 µg/mL for E. coli, 50 µg/mL for B. subtilis and 52 µg/mL for S. aureus.
# (§2) All the synthesized compounds were screened for their in vitro antifungal and antibacterial activity. The antibacterial activity was evaluated against three human pathogenic bacterial strains: Escherichia coli (NCIM-2256), Bacillus subtilis (NCIM-2063) and Staphylococcus aureus (NCIM-2901). The antifungal activity was evaluated against seven human pathogenic fungal strains: Candida albicans (NCIM-3471), Candida glabrata (NCYC-388), Fusarium oxysporum (NCIM-1332), Aspergillus fumigates (NCIM-902), Aspergillus flavus (NCIM-539), Aspergillus niger (NCIM-1196) and Cryptococcus neoformans (NCIM-576), which are often encountered clinically. Miconazole was used as standard drug. Minimum inhibitory concentration (MIC) values were determined as per CLSI guidelines. Dimethyl sulfoxide (DMSO) was used as solvent control.
# (§3) All the synthesized compounds 4a–o were screened for their in vitro antibacterial activity. Minimum inhibitory concentration (MIC) values were determined using method recommended by National Committee for Clinical Laboratory Standards (NCCLS). In vitro antibacterial activities of the synthesized compounds 4a–o were tested in Nutrient Broth (NB) for bacteria by the two fold serial dilution method. Seeded broth (broth containing microbial spores) was prepared in NB from 24 h old bacterial cultures on nutrient agar (Hi-media) at 37± 1 °C. The bacterial suspension was adjusted with sterile saline to a concentration of 1× 10^−4–10^−5 C.F.U. The synthesized compounds and standard drug Ampicillin were prepared by two fold serial dilutions to obtain the required concentrations of 400, 200, 100, 50, 25, 12.5, 6.25 and 3.13 μg/mL. The tubes were incubated in BOD incubators at 37± 1 °C for bacteria. The MICs were recorded by visual observations after 24 h (for bacteria) of incubation.
# [2] = system: Escherichia coli (NCIM-2256); assay: In vitro antibacterial activity, MIC; assay type: cell-based; conditions: average of three readings; for MIC: Escherichia coli, NCIM2256
# Method: as §1, §2, §3
# [3] = system: Staphylococcus aureus (NCIM-2901); assay: In vitro antibacterial activity, MIC; assay type: cell-based; conditions: average of three readings; for MIC: Staphylococcus aureus, NCIM2901
# Method: as §1, §2, §3
# [4] = system: Aspergillus flavus (NCIM-539); assay: In vitro antifungal activity, MIC, agar method (CLSI); assay type: cell-based; conditions: NCIM539, average of three readings
# Method: (§4) The newly synthesized 3-((dicyclohexylamino)(substituted phenyl/heteryl)methyl)-4-hydroxy-2H-chromen-2-one derivatives 4a–o were screened for their in vitro antifungal activity against different yeast and filamentous fungal pathogens. […] Dimethyl sulfoxide (DMSO) was used as solvent control.
# as §2, with “Miconazole was used as standard drug.” left out
# (§5) Antifungal activity was determined as per CLSI (formerly, NCCLS) guidelines. […] The medium yeast nitrogen base was dissolved in phosphate buffer pH 7 and it was autoclaved at 110 °C for 10 min. With each set a growth control without the antifungal agent and solvent control DMSO were included. The fungal strains were freshly sub cultured on to Sabouraud dextrose agar (SDA) and incubated at 25 °C for 72 h. The fungal cells were suspended in sterile distilled water and diluted to get 10^5 cells/mL. Ten μL of the standardized suspension was inoculated onto the control plates and the media incorporated with the antifungal agents. The inoculated plates were incubated at 25 °C for 48 h. The readings were taken at the end of 48 h and 72 h. The MIC was the lowest concentration of drug preventing growth of macroscopically visible colonies on drug containing plates when there was visible growth on the drug free control plates.
# [5] = system: Aspergillus fumigates (NCIM-902); assay: as above; assay type: cell-based; conditions: NCIM902, average of three readings
# Method: as §4
# as §2, with “Miconazole was used as standard drug.” left out
# as §5
# [6] = system: Aspergillus niger (NCIM-1196); assay: as above; assay type: cell-based; conditions: NCIM1196, average of three readings
# Method: as §4
# as §2, with “Miconazole was used as standard drug.” left out
# as §5
# [7] = system: Candida albicans (NCIM-3471); assay: as above; assay type: cell-based; conditions: NCIM3471, average of three readings
# Method: as §4
# as §2, with “Miconazole was used as standard drug.” left out
# as §5
# [8] = system: Candida glabrata (NCYC-388); assay: as above; assay type: cell-based; conditions: Nakaseomyces glabratus; average of three readings
# Method: as §4
# as §2, with “Miconazole was used as standard drug.” left out
# as §5
# [9] = system: Cryptococcus neoformans (NCIM-576); assay: as above; assay type: cell-based; conditions: NCIM576, average of three readings
# Method: as §4
# as §2, with “Miconazole was used as standard drug.” left out
# as §5
# [10] = system: Fusarium oxysporum (NCIM-1332); assay: as above; assay type: cell-based; conditions: NCIM1332, average of three readings
# Method: as §4
# as §2, with “Miconazole was used as standard drug.” left out
# as §5
MIC [1],MIC [2],MIC [3],MIC [4],MIC [5],MIC [6],MIC [7],MIC [8],MIC [9],MIC [10],melting point,MIC Bacillus subtilis [1],MIC Escherichia coli [2],MIC Staphylococcus aureus [3],Structure (SMILES)
68 µg/mL,70 µg/mL,65 µg/mL,38 µg/mL,84 µg/mL,43 µg/mL,66 µg/mL,58 µg/mL,54 µg/mL,55 µg/mL,112 to 114 °C,,,,"O=c1oc2ccccc2c(O)c1C(c1ccccc1)N(C1CCCCC1)C1CCCCC1 (stereo not drawn) [Compound 4a, 3-((Dicyclohexylamino)(phenyl)methyl)-4-hydroxy-2H-chromen-2-one]"
50 µg/mL,52 µg/mL,54 µg/mL,14 µg/mL,30 µg/mL,15 µg/mL,30 µg/mL,32 µg/mL,15 µg/mL,34 µg/mL,120 to 122 °C,,,,"O=c1oc2ccccc2c(O)c1C(c1ccc(Cl)cc1)N(C1CCCCC1)C1CCCCC1 (stereo not drawn) [Compound 4b, 3-((4-Chlorophenyl)(dicyclohexylamino)methyl)-4-hydroxy-2H-chromen-2-one]"
49 µg/mL,50 µg/mL,50 µg/mL,15 µg/mL,28 µg/mL,20 µg/mL,28 µg/mL,30 µg/mL,18 µg/mL,30 µg/mL,122 to 124 °C,,,,"O=c1oc2ccccc2c(O)c1C(c1ccc(F)cc1)N(C1CCCCC1)C1CCCCC1 (stereo not drawn) [Compound 4d, 3-((Dicyclohexylamino)(4-fluorophenyl)methyl)-4-hydroxy-2H-chromen-2-one]"
58 µg/mL,64 µg/mL,55 µg/mL,20 µg/mL,44 µg/mL,22 µg/mL,43 µg/mL,57 µg/mL,20 µg/mL,39 µg/mL,133 to 135 °C,,,,"COc1ccc(C(c2c(O)c3ccccc3oc2=O)N(C2CCCCC2)C2CCCCC2)cc1 (stereo not drawn) [Compound 4f, 3-((Dicyclohexylamino)(4-methoxyphenyl)methyl)-4-hydroxy-2H-chromen-2-one]"

# The next lines start with the compound.
Structure (SMILES),MIC [1],MIC [2],MIC [3],MIC [4],MIC [5],MIC [6],MIC [7],MIC [8],MIC [9],MIC [10],melting point,MIC Bacillus subtilis [1],MIC Escherichia coli [2],MIC Staphylococcus aureus [3]
"CC1(C)S[C@@H]2[C@H](NC(=O)[C@H](N)c3ccccc3)C(=O)N2[C@H]1C(=O)O [Ampicillin, reference compound]",50 µg/mL,50 µg/mL,50 µg/mL,,,,,,,,,,,
"O=c1oc2ccccc2c(O)c1C(c1c(Cl)cccc1Cl)N(C1CCCCC1)C1CCCCC1 (stereo not drawn) [Compound 4c, 3-((2,6-Dichlorophenyl)(dicyclohexylamino)methyl)-4-hydroxy-2H-chromen-2-one]",48 µg/mL,50 µg/mL,50 µg/mL,15 µg/mL,28 µg/mL,18 µg/mL,30 µg/mL,28 µg/mL,14 µg/mL,35 µg/mL,126 to 128 °C,48 µg/mL,50 µg/mL,50 µg/mL
"COc1ccc(C(c2c(O)c3ccccc3oc2=O)N(C2CCCCC2)C2CCCCC2)cc1OC (stereo not drawn) [Compound 4g, 3-((Dicyclohexylamino)(3,4-dimethoxyphenyl)methyl)-4-hydroxy-2H-chromen-2-one]",60 µg/mL,62 µg/mL,62 µg/mL,24 µg/mL,52 µg/mL,20 µg/mL,50 µg/mL,57 µg/mL,26 µg/mL,35 µg/mL,138 to 140 °C,,,
"COc1cc(C(c2c(O)c3ccccc3oc2=O)N(C2CCCCC2)C2CCCCC2)cc(OC)c1OC (stereo not drawn) [Compound 4h, 3-((Dicyclohexylamino)(3,4,5-trimethoxyphenyl)methyl)-4-hydroxy-2H-chromen-2-one]",68 µg/mL,68 µg/mL,66 µg/mL,38 µg/mL,50 µg/mL,34 µg/mL,48 µg/mL,64 µg/mL,34 µg/mL,45 µg/mL,136 to 138 °C,,,
"Clc1ccc(COC(Cn2ccnc2)c2ccc(Cl)cc2Cl)c(Cl)c1 (stereo not drawn) [Miconazole, reference compound]",,,,12 µg/mL,35 µg/mL,12 µg/mL,25 µg/mL,25 µg/mL,12 µg/mL,25 µg/mL,,,,
